From article PMC10726475, “Atypical N-Alkyl to N-Noralkoxy Switch in a Dual cSRC/BCR-ABL1 Kinase Inhibitor Improves Drug Efflux and hERG Affinity” (ACS Medicinal Chemistry Letters, 2023)
Values joined by “and” are separate entries in the source; they are usually repeats but may differ in a detail not shown here. Equal entries are not always repeated. Where two headings read alike, the source gives them in different places.

Assays:
[1] = Plasma protein binding by equilibrium dialysis, human; type: in vitro ADME
Text: (§1) Human plasma (mixed gender) Ltd-People’s Hospital of Shandong Weifang Hi-
(§2) Tech Industrial Development Zone (Batch No. P-
(§3) Rat plasma (SD/mixed gender) BiolVT (Batch No. RAT501985)
(§4) Mouse plasma (CD-1/mixed gender) IPHASE or BiolVT (Batch No. MSE427337)

[2] = Plasma protein binding by equilibrium dialysis, rat; type: in vitro ADME
Text: as §1, §2, §3, §4

[3] = Plasma protein binding by equilibrium dialysis, mouse; type: in vitro ADME
Text: as §1, §2, §3, §4

[4] = logD7.4 by shake-flask method; type: physicochemical; conditions: pH 7.4
[5] = pKa determination by pH-metric method; type: physicochemical
Experimental: Figure 3 Matched molecular pair (MMP) analysis on the 2-methoxyphenoxy-propyl-N-methylpiperazine scaffold and pKa values of related δ-alkoxy substituted amines. (A) MMP analysis of a bosutinib fragment. All measurements were assayed by Pharmaron Inc., and values presented represent the mean of n = 2 technical replicates, unless otherwise specified. logD7.4 was determined by the shake-flask method. […] (B) Reported[54] pKa values of related dimethylamines highlighting similarities in pKa values of δ-alkoxy substitution patterns. TEXT PRINTED IN THE PICTURE: (A) 17: logD7.4: 0.9; Aq. Sol. (μM): 277; pKa1: 4.2; pKa2: 8.1 | (A) 18: logD7.4: 1.0; Aq. Sol. […]
Inc. using methods previously derscribed.1 […]
Shedlovsky extrapolation for the pH-metric pKa method. […]

[6] = Solubility in aqueous buffer at pH 7.4; type: physicochemical; conditions: aqueous buffer at pH 7.4, n = 1; read-out: aq sol.
[7] = cited from earlier work; for ΔpKa: relative to simple tertiary amine 19, δ-position substituent
[8] = pH-metric method, range -12, read-out: pKa1

CN(N=O)C(=O)N[C@H]1C(O)O[C@H](CO)[C@@H](O)[C@@H]1O (mixture of isomers) [Streptozotocin]
Count (# of wells) (Salmonella strain TA100; TA100+S9, 2.5E-06 M): 19 | Count (# of wells) (Salmonella strain TA100; TA100-S9, 2.5E-06 M): 39 | Count (# of wells) (Salmonella strain TA1535; TA1535+S9, 2.5E-06 M): 48 | Count (# of wells) (Salmonella strain TA1535; TA1535-S9, 2.5E-06 M): 46 | Count (# of wells) (Salmonella strain TA1537; TA1537+S9, 2.5E-06 M): 0 | Positive Significance (- to +++) (Salmonella strain TA1537; TA1537+S9, 2.5E-06 M): - | Count (# of wells) (Salmonella strain TA1537; TA1537-S9, 2.5E-06 M): 1 | Positive Significance (- to +++) (Salmonella strain TA1537; TA1537-S9, 2.5E-06 M): - | Count (# of wells) (Salmonella strain TA98; TA98+S9, 2.5E-06 M): 6 | Positive Significance (- to +++) (Salmonella strain TA98; TA98+S9, 2.5E-06 M): + (weak positive, if P < 0.05) | Count (# of wells) (Salmonella strain TA98; TA98-S9, 2.5E-06 M): 1 | Positive Significance (- to +++) (Salmonella strain TA98; TA98-S9, 2.5E-06 M): -

Nc1ccc2cc3ccccc3cc2c1 [2-Aminoanthracene]
Count (# of wells) (Salmonella strain TA100; TA100+S9, 1.0E-06 M): 17 | Positive Significance (- to +++) (Salmonella strain TA100; TA100+S9, 1.0E-06 M): ++ (strong positive, if P < 0.01) | Count (# of wells) (Salmonella strain TA100; TA100-S9, 1.0E-06 M): 2 | Positive Significance (- to +++) (Salmonella strain TA100; TA100-S9, 1.0E-06 M): - | Count (# of wells) (Salmonella strain TA1535; TA1535+S9, 1.0E-06 M): 12 | Count (# of wells) (Salmonella strain TA1535; TA1535-S9, 1.0E-06 M): 0 | Positive Significance (- to +++) (Salmonella strain TA1535; TA1535-S9, 1.0E-06 M): - | Count (# of wells) (Salmonella strain TA1537; TA1537+S9, 2.0E-06 M): 11 | Positive Significance (- to +++) (Salmonella strain TA1537; TA1537+S9, 2.0E-06 M): ++ (strong positive, if P < 0.01) | Count (# of wells) (Salmonella strain TA1537; TA1537-S9, 1.0E-06 M): 0 | Positive Significance (- to +++) (Salmonella strain TA1537; TA1537-S9, 1.0E-06 M): - | Count (# of wells) (Salmonella strain TA98; TA98+S9, 2.0E-06 M): 48 | Count (# of wells) (Salmonella strain TA98; TA98-S9, 1.0E-06 M): 1 | Positive Significance (- to +++) (Salmonella strain TA98; TA98-S9, 1.0E-06 M): -

O=[N+]([O-])c1ccc2c(c1)Cc1ccccc1-2 [2-Nitrofluorene]
Count (# of wells) (Salmonella strain TA100; TA100+S9, 3.0E-05 M): 0 | Positive Significance (- to +++) (Salmonella strain TA100; TA100+S9, 3.0E-05 M): - | Count (# of wells) (Salmonella strain TA100; TA100-S9, 3.0E-05 M): 2 | Positive Significance (- to +++) (Salmonella strain TA100; TA100-S9, 3.0E-05 M): - | Count (# of wells) (Salmonella strain TA1535; TA1535+S9, 3.0E-05 M): 0 | Positive Significance (- to +++) (Salmonella strain TA1535; TA1535+S9, 3.0E-05 M): - | Count (# of wells) (Salmonella strain TA1535; TA1535-S9, 3.0E-05 M): 0 | Positive Significance (- to +++) (Salmonella strain TA1535; TA1535-S9, 3.0E-05 M): - | Count (# of wells) (Salmonella strain TA1537; TA1537+S9, 3.0E-05 M): 2 | Positive Significance (- to +++) (Salmonella strain TA1537; TA1537+S9, 3.0E-05 M): - | Count (# of wells) (Salmonella strain TA1537; TA1537-S9, 3.0E-05 M): 6 | Positive Significance (- to +++) (Salmonella strain TA1537; TA1537-S9, 3.0E-05 M): + (weak positive, if P < 0.05) | Count (# of wells) (Salmonella strain TA98; TA98+S9, 3.0E-05 M): 28 | Count (# of wells) (Salmonella strain TA98; TA98-S9, 3.0E-05 M): 30

Nc1c2ccccc2nc2ccccc12 [9-Aminoacridine]
Count (# of wells) (Salmonella strain TA100; TA100+S9, 1.0E-05 M): 2 | Positive Significance (- to +++) (Salmonella strain TA100; TA100+S9, 1.0E-05 M): - | Count (# of wells) (Salmonella strain TA100; TA100-S9, 1.0E-05 M): 0 | Positive Significance (- to +++) (Salmonella strain TA100; TA100-S9, 1.0E-05 M): - | Count (# of wells) (Salmonella strain TA1535; TA1535+S9, 1.0E-05 M): 1 | Positive Significance (- to +++) (Salmonella strain TA1535; TA1535+S9, 1.0E-05 M): - | Count (# of wells) (Salmonella strain TA1535; TA1535-S9, 1.0E-05 M): 0 | Positive Significance (- to +++) (Salmonella strain TA1535; TA1535-S9, 1.0E-05 M): - | Count (# of wells) (Salmonella strain TA1537; TA1537+S9, 1.0E-05 M): 31 | Count (# of wells) (Salmonella strain TA1537; TA1537-S9, 1.0E-05 M): 25 | Count (# of wells) (Salmonella strain TA98; TA98+S9, 1.0E-05 M): 1 | Positive Significance (- to +++) (Salmonella strain TA98; TA98+S9, 1.0E-05 M): - | Count (# of wells) (Salmonella strain TA98; TA98-S9, 1.0E-05 M): 2 | Positive Significance (- to +++) (Salmonella strain TA98; TA98-S9, 1.0E-05 M): -

CC(=O)N1CCN(c2ccc(OCC3COC(Cn4ccnc4)(c4ccc(Cl)cc4Cl)O3)cc2)CC1 (stereo not shown) [Ketoconazole]
fu, plasma % / %Unbound ([1]; 5 μM, equilibrium dialysis): 0.82% | recovery ([1]; both sexes): 98.6% | remaining at 6 h, 5 μM ([1]; both sexes): 102% | fraction unbound at 5 μM ([1]; both sexes, read-out: %Bound (converted)): 0.0082 | fu, plasma % / %Unbound ([2]; 5 μM, equilibrium dialysis): 0.67% | recovery ([2]; both sexes, SD): 103% | fraction unbound at 5 μM ([2]; both sexes, SD, read-out: fu, plasma % / %Unbound (converted)): 0.0067 | %Bound [3]: 99.42% | recovery ([3]; both sexes, CD-1): 96.8% | remaining at 6 h, 5 μM ([3]; both sexes, CD-1): 96.3% | fraction unbound at 5 μM ([3]; both sexes, CD-1, 5 μM, equilibrium dialysis, read-out: fu, plasma % / %Unbound): 0.0058

COc1ccccc1OCCCN1CCN(C)CC1 [compound 17]
logD at 2 h [4]: 0.9 | pKa ([5]; pH 2, pH-metric method, range pH 2-12, read-out: pKa2): 8.1 | pKa [5, 8]: 4.2 | solubility [6]: > 250 µM and 277 µM

COc1ccccc1OCCON1CCN(C)CC1 [compound 18]
logD at 2 h [4]: 1 | pKa [5, 8]: 7.4 | ΔpKa ([5]; terminal N-methylamine of 18 relative to 17): −0.7 | solubility [6]: > 250 µM and 287 µM

COCCCN(C)C [compound 20]
ΔpKa [7]: −0.8

CN(C)CCCO [compound 21]
ΔpKa [7]: −0.9

NO [hydroxylamine]
pKa ([7]; simple hydroxylamine): 5.9
